{
  "source": "patent US20230372542A1",
  "about": "“COMPOSITION AND METHODS FOR MODULATING TCF4 GENE EXPESSION AND TREATING PITT HOPKINS SYNDROME” (The Regents of the University of California, priority 2020, published 2023)",
  "format_in_all_cases": "cell-based, human",
  "key": {"[1]": {"tested_on": "NPCs", "assay": "NPC proliferation (live cell count, EdU) after Wnt signaling manipulation", "experimental": "Proliferation and apoptosis assays.\nWnt signaling manipulation. For manipulating the Wnt/β-catenin signaling pathway in NPCs, 200,000 cells were seeded on a 6-well plate, followed by treatment with specific agonist CHIR99021 (1 μM) for 4 days. Controls were treated with DMSO (CHIR diluent) at the same concentration and for the same duration. […] In all cases, treated cells were assayed to measure activity of the Wnt pathway via transfection with the TOP-Flash plasmids described herein."}, "[2]": {"tested_on": "Wnt/β-catenin signaling pathway", "assay": "TOP-Flash luciferase reporter Wnt functional assay in NPCs", "conditions": "PTHS NPCs; CHIR99021 (FIG. 16D)", "description": "TOP-Flash luciferase reporter Wnt functional assay. For assessing levels of Wnt signaling, 70% confluent cultures of NPCs in 24-well plates (with Neural Progenitor Medium from StemCell Technologies) were transfected with the M50 Super 8×TOPFlash plasmid (Addgene #12456; [http:/]/n2t.net/addgene:12456; RRID:Addgene_12456; referred to as TOP-Flash luciferase reporter plasmid), which is used to assess β-catenin-mediated transcriptional activation. This plasmid contains a minimal TA viral promoter driving the expression of a firefly luciferase gene preceded by seven binding sites ([…]; SEQ ID NO:1) for TCF/LEF (Veeman et al., 2003), not to be confused with TCF4. Control NPCs were transfected with M51 Super8×TOPflash plasmids, which have mutant TCF/LEF binding sites (Addgene plasmid #12457; [http:/]/n2t.net/addgene:12457; RRID:Addgene_12457).\nTransfection was performed using the Amaxa Nucleofaction Mouse Neural Stem Cell Nucleofector kit for NPCs (Lonza), using the manufacturer's recommendations. After 24 h, medium was replenished and the luciferase assay was performed using the Pierce Firefly Luciferase Flash Assay Kit (Thermo Fisher Scientific) on a sample of 50,000 cells, using a Synergy microplate reader (BioTek Instruments). […] Activity levels were expressed as arbitrary units normalized against the mean activity in the respective controls. […]"}, "[3]": {"tested_on": "CtOs or sPOs", "assay": "Wnt signaling manipulation in brain organoids (size, immunostaining, single cell RNA-Seq)", "experimental": "Immunofluorescence staining. After being cultured in vitro for the required amount of time, CtOs and sPOs were fixed with 4% paraformaldehyde for 4-8 h at 4° C. and cryoprotected in 30% sucrose for 12 h. Organoids were then embedded in TissueTek (Leica Microsystems) and sectioned on a Leica VT1000S cryostat to produce 20 μm sections. For staining, slides were air dried for 10 min, permeabilized in […] for 2 min, and blocked with […] for 1 h at 25° C., followed by incubation with primary antibodies in the same solutions, for 16 h at 4° C. […] After further washes in 1×PBS, slides were counterstained with DAPI solution (1 μg/mL) for 45 min and mounted with ProLong Gold. All images were taken using a Zeiss fluorescence microscope equipped with Apotome (Axio Observer Apotome, Zeiss). For projections of z series stacked images of DCX-stained organoids, the maximum intensity feature of ZEN software (Zeiss) was used, after collecting 10 optical slices per section. For p16^INK4a staining, antigen retrieval was performed by incubating the slides at 60° C. for 10 min in 1× Universal HIER antigen retrieval reagent (Abcam; ab208572), followed by regular immunostaining. For counting SOX2+ cells after p16^INK4a co-staining (FIG. 15J), raw unprocessed images were used, and defined strongly stained cells as those which had average pixel intensity between the upper third quartile and the maximum pixel intensity in each image. Remaining SOX2+ cells were considered weakly stained.\nFor quantification of cell types in organoid sections, 4 random 100×100 μm regions of interest (ROI) were sampled across each imaged section. The mean number of labeled cells per sample was calculated by first averaging the number of labeled cells in each ROI to produce a mean value of labeled cells per section, and then averaging these mean values across all sections for each subject. […] The average percentage of pixels according to these rules was computed over four 100×100 μm ROIs per section and 6 sections per subject.\nOrganoid single cell RNA sequencing analysis. CtOs and sPOs were dissociated to produce a single cell suspension via a combination of mechanical dissociation with forceps and enzymatic digestion with Accutase for 10 min. For each library, a total of 15 organoids were dissociated and the resulting cells were pooled and subsequently filtered to isolate single cells for RNA sequencing analysis on the same day. Dissociated cells were pelleted (3 min, 100× g, 4° C.) and resuspended in 10 mL of Neurobasal medium. […] Single cell RNA-seq libraries were prepared using the Chromium Single Cell 3′ v3 Library kit (10× Genomics) according to the manufacturer's protocol. Approximately 20,000 cells were loaded per sample on the Chromium chip. All steps, including GEM (Gel beads in emulsion) preparation, reverse transcription, PCR amplification, and Illumina library construction were carried out on a T100 thermal cycler (Bio-Rad). cDNA extracted from GEMs was cleaned up using MyOne Silane Beads (Thermo Fisher Scientific), PCR-amplified for a total of 10 cycles, and then purified using SPRIselect Reagent Kit (B23317, Beckman Coulter). Next, the cDNA pool was enzymatically fragmented for each library and a double size selection was performed using the SPRIselect Reagent Kit. Finally, Illumina adapters were ligated to prepare libraries for sequencing, followed by another round of double size selection with the SPRIselect Reagent Kit. […] Illumina libraries were quantified using Qubit dsDNA HS Assay Kit (Thermo Fisher Scientific) and size quality control was performed on a High Sensitivity D1000 tapestation (Agilent)."}},
  "data": [
    {"smiles": "Cc1c[nH]c(-c2cnc(NCCNc3ccc(C#N)cn3)nc2-c2ccc(Cl)cc2Cl)n1", "note": "[CHIR99021]", "values": [
      {"measurement": "proliferation rates", "setting": "[1]; PTHS NPCs, CHIR99021 1 μM, 4 days (FIGS. 9G-H)", "value": "rescued the proliferation rates"},
      {"measurement": "proliferation", "setting": "[1]; parent NPCs in 2D culture, CHIR (FIGS. 9G-H)", "value": "does not lead to increased proliferation"},
      {"measurement": "Wnt signaling activity (TOP-Flash)", "setting": "[2]", "value": "increased"},
      {"measurement": "percentage of subpallial-type neural progenitors", "setting": "[3]; CHIR99021-treated CtOs (FIG. 16H)", "value": "increased percentage"},
      {"measurement": "progenitor population (single cell RNA-Seq)", "setting": "[3]; CHIR99021-treated PTHS CtOs and sPOs (FIGS. 16G-H)", "value": "increase in the progenitor population"},
      {"measurement": "neural rosettes", "setting": "[3]; PTHS CtOs, CHIR99021", "value": "reappearance of conspicuous neural rosettes"},
      {"measurement": "NPC content (SOX2+ cells)", "setting": "[3]; PTHS CtOs, CHIR99021 1 μM (FIG. 9K)", "value": "significant increase"},
      {"measurement": "organoid size", "setting": "[3]; PTHS CtOs, CHIR99021 1 μM (FIG. 16F)", "value": "significant increase in organoid size"},
      {"measurement": "TCF4 levels in neural progenitors of the organoid's 3D structure", "setting": "[3]; PTHS sPOs, CHIR (FIG. 16J)", "value": "do not exhibit an increase in TCF4 levels"},
      {"measurement": "expression of subpallial markers (GAD1, GAD2)", "setting": "[3]; parent and PTHS CHIR99021-treated organoids (FIG. 16I)", "value": "higher"},
      {"measurement": "progenitor content", "setting": "[3]; parent organoids, CHIR (FIG. 9K)", "value": "does not lead to an increase"},
      {"measurement": "organoid size", "setting": "[3]; parent organoids, CHIR (FIG. 16F)", "value": "does not lead to an increase"}
    ]}
  ]
}
